Reference: paper PMC11345504 (Current Research in Insect Science, 2024)
Values belong to the compound of their own block, whether it stands above or below them.

Experiments:
RpalOR1 [1] = biological target: T1, RpalOR1 (Rhynchophorus palmarum, UniProt A0A8A5RCH6); assay: single-sensillum recording, Drosophila at1 OSNs; format: cell-based; conditions: 500 ms, agonist
T1 sequence (A0A8A5RCH6 1-411): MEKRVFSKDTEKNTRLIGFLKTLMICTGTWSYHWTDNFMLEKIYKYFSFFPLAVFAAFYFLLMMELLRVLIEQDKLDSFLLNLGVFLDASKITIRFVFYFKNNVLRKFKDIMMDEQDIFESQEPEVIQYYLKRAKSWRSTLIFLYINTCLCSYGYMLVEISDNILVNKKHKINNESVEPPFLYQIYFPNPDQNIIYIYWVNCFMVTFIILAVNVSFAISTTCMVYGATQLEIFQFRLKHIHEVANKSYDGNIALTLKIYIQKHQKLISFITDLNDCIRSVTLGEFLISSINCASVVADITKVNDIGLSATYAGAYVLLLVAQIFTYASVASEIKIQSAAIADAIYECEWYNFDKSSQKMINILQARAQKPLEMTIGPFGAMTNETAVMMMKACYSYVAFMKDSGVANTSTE
T1 sequence (Q9VNB5 1-486 partner): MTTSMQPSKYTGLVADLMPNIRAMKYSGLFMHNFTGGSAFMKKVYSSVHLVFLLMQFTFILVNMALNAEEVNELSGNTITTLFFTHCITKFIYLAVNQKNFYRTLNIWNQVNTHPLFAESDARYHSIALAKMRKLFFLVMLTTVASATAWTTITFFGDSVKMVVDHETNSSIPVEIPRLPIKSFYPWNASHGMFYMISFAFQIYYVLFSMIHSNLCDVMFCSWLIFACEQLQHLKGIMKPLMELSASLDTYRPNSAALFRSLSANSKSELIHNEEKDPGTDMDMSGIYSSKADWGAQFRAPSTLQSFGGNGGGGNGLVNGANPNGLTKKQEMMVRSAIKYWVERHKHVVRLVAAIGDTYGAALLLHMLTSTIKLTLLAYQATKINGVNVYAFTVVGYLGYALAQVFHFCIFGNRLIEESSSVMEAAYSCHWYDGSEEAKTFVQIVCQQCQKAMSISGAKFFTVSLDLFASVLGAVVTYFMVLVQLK

RpalOR1 [2] = biological target: T1, RpalOR1; assay: single-sensillum recording, Drosophila at1 OSNs; format: cell-based; conditions: 1 µg in hexane on stimulus cartridge, 500 ms; agonist
RferOR1 = biological target: T2, RferOR1 (Rhynchophorus ferrugineus, UniProt A0A4P8W8S8); assay: single-sensillum recording, Drosophila at1 OSNs; format: cell-based; conditions: […] µg in paraffin oil on stimulus cartridge, […] ms; agonist
T2 sequence (A0A4P8W8S8 1-411): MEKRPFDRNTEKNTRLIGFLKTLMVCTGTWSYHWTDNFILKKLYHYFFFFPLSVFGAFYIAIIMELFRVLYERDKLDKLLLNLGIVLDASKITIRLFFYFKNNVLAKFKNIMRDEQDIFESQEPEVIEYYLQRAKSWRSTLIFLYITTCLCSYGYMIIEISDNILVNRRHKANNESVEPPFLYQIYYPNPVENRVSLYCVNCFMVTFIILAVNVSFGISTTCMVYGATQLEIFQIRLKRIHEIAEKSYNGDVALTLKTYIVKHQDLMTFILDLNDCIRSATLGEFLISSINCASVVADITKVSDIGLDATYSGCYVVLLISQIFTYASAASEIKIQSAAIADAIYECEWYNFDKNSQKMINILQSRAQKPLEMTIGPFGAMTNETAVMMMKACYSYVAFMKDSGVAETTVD
T2 sequence (Q9VNB5 1-486 partner): T1 sequence (Q9VNB5 1-486 partner)

RpalOR1 [3] = biological target: T1, RpalOR1; conditions: 100 µg in paraffin oil on stimulus cartridge, 500 ms; agonist
[4] = 1 µg in hexane on stimulus cartridge
[5] = 100 µg in paraffin oil on stimulus cartridge

Structure (SMILES): CCCC(=O)C(C)CCC (stereo not drawn) [5-methyloctan-4-one]
single-sensillum recording, Drosophila at1 OSNs (RpalOR1 [1]; [4]): We also found a response to 5-methyloctan-4-one

Structure (SMILES): C/C=C/C(O)CCCC (stereo not drawn) [(E)‑oct-2-en-4-ol]
single-sensillum recording, Drosophila at1 OSNs (RpalOR1 [1]; [4]): The two last agonists were (E)‑oct-2-en-4-ol and nonan-5-one

average response at 1 μg (RpalOR1 [2]): 27 action potentials per second
Structure (SMILES): C/C=C/C(O)C(C)CC (stereo not drawn) [(E)−5-methylhept-2-en-4-ol]

Structure (SMILES): CCCCOC(=O)CCC [butyl butyrate]
single-sensillum recording, Drosophila at1 OSNs (RferOR1): significantly activated by the same palm tree esters: propyl butyrate, butyl butyrate
single-sensillum recording, Drosophila at1 OSNs (RpalOR1 [1]; [5]): significantly activated by the same palm tree esters: propyl butyrate, butyl butyrate

Structure (SMILES): CCCCCC(=O)OCC [ethyl hexanoate]
single-sensillum recording, Drosophila at1 OSNs (RferOR1): propyl butyrate, butyl butyrate, ethyl valerate and ethyl hexanoate
single-sensillum recording, Drosophila at1 OSNs (RpalOR1 [1]; [5]): propyl butyrate, butyl butyrate, ethyl valerate and ethyl hexanoate

Structure (SMILES): CCCCC(=O)OCC [ethyl valerate]
single-sensillum recording, Drosophila at1 OSNs (RpalOR1 [1]; [5]): propyl butyrate, butyl butyrate, ethyl valerate and ethyl hexanoate

Structure (SMILES): CCCCC(O)C(C)CCC (stereo not drawn) [ferrugineol, 4-methylnonan-5-ol]
average response at 1 μg (RpalOR1 [2]): 112 action potentials per second

Structure (SMILES): CCCCC(=O)C(C)CCC (stereo not drawn) [ferrugineone, 4-methylnonan-5-one]
average response at 1 μg (RpalOR1 [2]): 103 action potentials per second

Structure (SMILES): CCCCC(O)CCCC [nonan-5-ol]
single-sensillum recording, Drosophila at1 OSNs (RpalOR1 [1]; [4]): RpalOR1 was activated by phoenicol as well as nonan-5-ol

Structure (SMILES): CCCCC(=O)CCCC [nonan-5-one]
single-sensillum recording, Drosophila at1 OSNs (RpalOR1 [1]; [4]): The two last agonists were (E)‑oct-2-en-4-ol and nonan-5-one

Structure (SMILES): CCCCC(O)C(C)CC (stereo not drawn) [phoenicol, 3-methyloctan-4-ol]
single-sensillum recording, Drosophila at1 OSNs (RpalOR1 [1]; [4]): RpalOR1 was activated by phoenicol as well as nonan-5-ol

Structure (SMILES): CCCOC(=O)CCC [propyl butyrate]
single-sensillum recording, Drosophila at1 OSNs (RferOR1): both RpalOR1 and RferOR1 were significantly activated by the same palm tree esters: propyl butyrate
average response at 100 μg (RpalOR1 [3]): 63 action potentials per second
